Measured values: US20250340549A1, “BICYCLIC HETEROAROMATIC INHIBITORS OF NICOTINAMIDE N-[…], AND COMPOSITIONS AND USES THEREOF” (President and Fellows of Harvard College, priority 2021, published 2025)

Experiments:
in vitro = test: in vitro
Method: A master solution was prepared according to the following table.
40 μL of 10 mM NADPH solution was added to each well. The final concentrations of NADPH was 1 mM. The mixture was pre-warmed at 37° C. for 5 minutes. The negative control samples were prepared by replacing NADPH solutions with 40 μL of ultra-pure H2O. The negative control was used to exclude the misleading factor that resulted from instability of chemical itself. Samples with NADPH were prepared in duplicate. Negative controls were prepared in singlet.
The reaction was started with the addition of 4 μL of 200 uM control compound or test compound solutions. […] The reaction was stopped by the addition of 4 volumes of cold acetonitrile with IS (100 nM alprazolam, 200 nM imipramine, 200 nM labetalol and 2 uM ketoprofen). Samples were centrifuged at 3, 220 g for 40 minutes. Aliquot of 90 μL of the supernatant was mixed with 90 μL of ultra-pure H2O and then used for LC-MS/MS analysis.
For metabolite standard samples: 1 μL of 400 uM working solution was added to 89 μL master solution following by adding 400 μL of cold acetonitrile with internal standard (IS) (100 nM alprazolam, 200 nM Imipramine, 200 nM labetalol and 2 uM ketoprofen). Then 10 μL of 10 mM NADPH solution or ultra-pure H2O was added to the mixture. Samples were centrifuged at 3,220 g for 40 minutes to precipitate protein. Aliquots of 90 μL supernatant diluted by 90 μL of water was used for LC-MS/MS analysis.

[1] = Mouse PK study (IV and PO) in female C57B16/N; format: in vivo; conditions: for Tmax: iv
Method: Doses were freshly prepared on the day of dosing. Vehicle compositions of each dose are listed below. For IV, an appropriate amount of the test article was dissolved in the vehicle with vortexing and/or sonication to achieve a solution with the intended concentration level. For PO, an appropriate amount of the test article was dissolved in the appropriate vehicle; vortex and/or sonication can be used to achieve a solution formulation with the intended concentration level. • IV: 0.5% Tween 80 in saline • PO: 0.2% Tween 80/10% PEG-300 in water. Adjust pH with IN hydrochloric acid to obtain a clear solution
(§1) After dosing, 0.03 mL blood samples were collected from the dorsal metatarsal vein (0.2 mL at final time point via heart puncture) at the following time points: • IV: pre-dose, 0.0833, 0.25, 0.5, 1, 2, 4, 6, 8, 24 hours post dose • PO: pre-dose, 0.25, 0.5, 1, 2, 4, 6, 8, 24 hours post dose
(§2) Blood from each sample was transferred into plastic micro centrifuge tubes with EDTAK2 as an anticoagulant. The blood samples were centrifuged at 4,000 g for 5 minutes at 4° C. to obtain plasma. Samples were immediately frozen in the upright position and stored at −75±15° C. prior to analysis.
Samples were analyzed on a AB Sciex Triple Quad 5500 LC/MS/MS instrument using a Gemini 5 μm C18 110A 150×3 mm column (XBridge BEH C18 2.5 μm 4.6×75 mm in the case of JBSNF-000265) with the following equipment installed.
The mobile phase A was 0.1% formic acid in water, and the mobile phase B was 95% acetonitrile in water (0.1% formic acid), delivered at 0.4 mL/min.
Sample Preparation: The desired serial concentrations of working solutions were achieved by diluting stock solution of analyte with 50% acetonitrile in water solution. 5 μL of working solutions (1, 2, 3, 5, 10, 50, 100, 500, 1000 ng/ml) were added to 5 μL of the blank C57B16/N mouse plasma to achieve calibration standards of 1˜1000 ng/ml (1, 2, 3, 5, 10, 50, 100, 500, 1000 ng/ml) in a total volume of 10 μL. Four quality control samples at 3 ng/mL, 5 ng/mL, 100 ng/mL, and 800 ng/mL for plasma were prepared independently of those used for the calibration curves. These QC samples were prepared on the day of analysis in the same way as calibration standards.
(§3) 10 μL of standards, 10 μL of QC samples and 10 μL of unknown samples (5 μL of plasma with 5 μL of blank solution) were added to 100 μL of acetonitrile (containing D4-1-MNA 50 ng/mL) for precipitating protein respectively. Then the samples were vortexed for 30 s. After centrifugation at 4 degree Celsius, 4,000 rpm for 15 min, the supernatant was diluted 3 times with water. 10 μL of diluted supernatant (20 μL in the case of JBSNF-000265) was injected into the LC/MS/MS system for quantitative analysis.

1-MNA = 1-MNA plasma PK parameters in mouse after dosing with compound; format: in vivo; conditions: plasma 1-MNA, female C57B16/N
Method: as §1, §2
Sample Preparation: 1-Methylnicotinamide (1-MNA): The desired serial concentrations of working solutions were achieved by diluting stock solution of analyte with 50% acetonitrile in water solution. 5 μL of working solutions (1, 2, 3, 5, 10, 50, 100, 500, 1000 ng/mL) were added to 5 μL of water to achieve calibration standards of 1˜1000 ng/ml (1, 2, 3, 5, 10, 50, 100, 500, 1000 ng/ml) in a total volume of 10 μL. Four quality control samples at 3 ng/ml, 5 ng/mL, 100 ng/mL, and 800 ng/ml for water were prepared independently of those used for the calibration curves. These QC samples were prepared on the day of analysis in the same way as calibration standards.
as §3, with “D4-1-MNA 100” for “D4-1-MNA 50”, “Celsius, 4000” for “Celsius, 4,000”, “water. 5” for “water. 10”, “supernatant” for “supernatant (20 μL in the case of JBSNF-000265)”

recombinant human NNMT = target: T1, recombinant human NNMT (Homo sapiens, UniProt P40261); test: In vitro NNMT enzyme inhibition assay (Promega MTase-Glo Methyltransferase Assay); format: biochemical; conditions: compared with compound 1
T1 sequence (P40261 1-264): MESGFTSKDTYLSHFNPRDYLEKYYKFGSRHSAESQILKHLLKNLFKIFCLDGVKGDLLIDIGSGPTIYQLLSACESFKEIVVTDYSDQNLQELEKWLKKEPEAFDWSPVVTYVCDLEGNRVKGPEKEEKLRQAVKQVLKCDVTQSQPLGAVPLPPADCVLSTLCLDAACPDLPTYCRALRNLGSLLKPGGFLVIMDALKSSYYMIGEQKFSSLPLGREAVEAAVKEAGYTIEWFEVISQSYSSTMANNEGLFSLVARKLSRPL
Method: NNMT biochemical activity for was evaluated for compound 1 (FIG. 1), compound 2 (FIG. 2), compound 6 (FIG. 3), compound 8 (FIG. 4), compound 14 (FIG. 5), compound 16 (FIG. 6), and compound 13 (FIG. 12), using the Promega Mtase-Glo Methyltransferase Assay kit. Compounsd 4A (FIG. 7) and 4B (FIG. 8) were also tested in the assay.
Assays were performed in a white, flat-bottomed 96 well plate. […] Reactions were performed for 20 minutes at room temperature. MTase-Glo reagent and MTase-Glo detection solution were added according to manufacturer's instructions and luminescence signal measured with a SpectraMax i3 plate reader and data analyzed with GraphPad Prism version 9. Scheme 10 depicts a visual summary of the Promega MTase-Glo Methyltransferase assay used to assess biochemical activity of novel inhibitors.

[2] = mouse, plasma, 1 mg/kg (Table 5B, title: IV Dosage)
[3] = mouse, plasma, 10 mg/kg (Table 5B, title: IV Dosage)
[4] = mouse, plasma, 50 mg/kg (Table 5B, title: IV Dosage)

CNc1cc2ccnc(N)c2cn1 [Compound 1]
Predicted hepatic CL (in vitro; human, 2 uM): <0.307 L/h/kg | CLint scaled at 2 uM (in vitro; human, microsomes): < 0.407 L/h/kg | half-life at 2 uM (in vitro; human, microsomes): > 256 min | microsomal CLint at 2 uM (in vitro; human, microsomes): < 5.42 µL/min/mg | Remaining (%) at 60 minutes (in vitro; human, microsomes, 1 h, 2 uM): 86.23% | % Q (mice): percent of compound remaining after 60 minutes of exposure to liver microsomes (in vitro; male, C57B16/N, mouse, microsomes, 1 h, 2 uM): 46.35% | Predicted hepatic CL (in vitro; male, mouse, 2 uM): 3.007 L/h/kg | CLint scaled at 2 uM (in vitro; male, mouse, microsomes): 6.79 L/h/kg | half-life at 2 uM (in vitro; male, mouse, microsomes): 53.6 min | microsomal CLint at 2 uM (in vitro; male, mouse, microsomes): 25.9 µL/min/mg | Remaining (%) at 60 minutes (in vitro; male, mouse, microsomes, 1 h, 2 uM): 46.35% | % Q (human): percent of compound remaining after 60 minutes of exposure to liver microsomes (in vitro; microsomes, 1 h, 2 uM): 86.23% | AUC% Extrap—obs ([1]; 3 mg/kg IV): 0.666% | AUClast/D ([1]; 3 mg/kg IV): 97 ng·h/mL per mg/kg | Cl_obs ([1]; 3 mg/kg IV): 10.4 L/h/kg | F ([1]; 10 mg/kg): 10.3% | F ([1]; 50 mg/kg): 32.4% | AUC(0-t) [1, 2]: 0.097 µg·h/mL | Cmax [1, 2]: 0.00366 µg/mL | half-life [1, 2]: 255 min | AUC(0-inf) ([1]; mouse, plasma, 3 mg/kg IV): 0.292 µg·h/mL | AUC(0-t) ([1]; mouse, plasma, 3 mg/kg IV): 0.29 µg·h/mL | C0 ([1]; mouse, plasma, 3 mg/kg IV): 0.864 µg/mL | half-life ([1]; mouse, plasma, 3 mg/kg IV): 25.5 min | MRT inf ([1]; mouse, plasma, 3 mg/kg IV, read-out: MRTInf—obs): 20.8 min | AUC(0-t) [1, 3]: 0.0964 µg·h/mL | Cmax [1, 3]: 0.145 µg/mL | half-life [1, 3]: 143 min | AUC(0-t) [1, 4]: 1.54 µg·h/mL | Cmax [1, 4]: 1.35 µg/mL | half-life [1, 4]: 473 min | Tmax ([1]; mouse, plasma, 10 mg/kg): 15 min | Tmax ([1]; mouse, plasma, 50 mg/kg): 20 min | AUClast of 1-MNA (1-MNA; 3 mg/kg IV): 1463 ng·h/mL | AUClast of 1-MNA (1-MNA; 10 mg/kg PO): 934 ng·h/mL | AUClast of 1-MNA (1-MNA; 50 mg/kg PO): 814 ng·h/mL

CNc1cc2ccncc2cn1
activity in the enzyme assay (in words) (recombinant human NNMT): significantly less active

CNc1cc2cc[nH]c(=O)c2cn1
activity in the enzyme assay (in words) (recombinant human NNMT): substrate (not inhibitor)
